Source: patent publication US9057090B2, “Method of identifying an agent for inhibiting odor of pyrazine derivatives” (Kao Corporation, priority 2012, dated 2015)

Target: T1, olfactory receptor OR5K1 (Homo sapiens, UniProt Q8NHB7)
T1 construct: expressed in transfected cells; host or cells: HEK293
T1 sequence (Q8NHB7 1-308): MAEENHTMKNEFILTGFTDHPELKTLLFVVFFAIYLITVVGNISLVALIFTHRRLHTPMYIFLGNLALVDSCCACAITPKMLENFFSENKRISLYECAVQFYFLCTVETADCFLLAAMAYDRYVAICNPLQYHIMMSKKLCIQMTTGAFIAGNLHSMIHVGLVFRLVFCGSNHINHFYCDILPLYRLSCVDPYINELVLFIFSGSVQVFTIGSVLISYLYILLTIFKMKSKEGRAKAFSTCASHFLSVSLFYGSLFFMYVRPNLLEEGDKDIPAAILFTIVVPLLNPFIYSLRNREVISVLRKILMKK
Assay: Luciferase reporter gene assay: response of olfactory receptor to pyrazine derivatives
Type: cell-based
Conditions: for response of OR5K1, dependency on concentration: 0, 3, 10, 30, 100, 300 and 1000 μM, HEK293 cells expressing OR5K1 with RTP1S variant, FIG. 2
Method: HEK293 cells expressing 373 types of human olfactory receptors were produced. A reaction solution having a composition shown in Table 1 was prepared and left to stand in a clean bench for 15 min and then was dispensed in each well of a 96-well plate (Becton, Dickinson and Company). Subsequently, HEK293 cells (100 μL, 3×10^5 cells/cm^2) were seeded in each well and cultured in an incubator at 37° C. and 5% CO2 for 24 hr.
An olfactory receptor expressed in HEK293 cells couples with endogenous Gas in the cells to activate adenylate cyclase and thereby increases the amount of intracellular cAMP. In this study, the response of a pyrazine derivative was measured by luciferase reporter gene assay which monitors an increase in the amount of intracellular cAMP as the luminescence value derived from a firefly luciferase gene (fluc2P-CRE-hygro). A Renilla luciferase gene was fused downstream of a CMV promoter (hRluc-CMV) and was also introduced to HEK293 cells as an internal standard to correct errors in transgenic efficiency and number of cells.
The culture medium was removed from the culture produced in the above 3), and 75 μL of a solution prepared with a CD293 medium (Invitrogen Inc.) so as to contain a pyrazine derivative (1 mM 2,6-dimethylpyrazine) was added thereto. The cells were cultured in a CO2 incubator for 2.5 hr to sufficiently express the luciferase gene in the cells. The luciferase activity was measured with a Dual-Glo™ luciferase assay system (Promega Corporation) in accordance with the operating manual of the system. The fold increases were calculated by dividing the luminescence value derived from firefly luciferase induced by stimulation with a pyrazine derivative at each concentration by the luminescence value in cells not stimulated with the pyrazine derivative and were used as an index of response strength.
Olfactory receptor OR5K1 (SEQ ID NO: 2) was expressed in HEK293 cells together with an RTP1S variant (SEQ ID NO: 4) by the same procedure as in Example 1, and the dependency of the response on the concentration (0, 3, 10, 30, 100, 300, and 1000 μM) of various pyrazine compounds was investigated. The pyrazine compounds used in this Example were pyrazine and pyrazine derivatives selected from the group consisting of 2-methylpyrazine, 2,3-dimethylpyrazine, 2,5-dimethylpyrazine, 2,3,5-trimethylpyrazine, 2,3,5,6-tetramethylpyrazine and 2-ethylpyrazine.

Cc1nccnc1C [2,3-dimethylpyrazine]
response of OR5K1, dependency on concentration: responded in a dose-dependent manner

c1cnccn1 [pyrazine]
response of OR5K1, dependency on concentration: did not respond

Cc1cnc(C)cn1 [2,5-dimethylpyrazine]
response of OR5K1, dependency on concentration: responded in a dose-dependent manner

Cc1cncc(C)n1 [2,6-dimethylpyrazine]
response of OR5K1, dependency on concentration: responded in a dose-dependent manner
response of the 373 types of olfactory receptors to the pyrazine derivative (1 mM, HEK293 cells expressing human olfactory receptors, FIG. 1): only olfactory receptor OR5K1 responded
